Data as given in patent publication US10993919B2, “Chondroprotective nanoparticles for the treatment of osteoarthritis” (University of Florida Research Foundation, Inc., priority 2016, dated 2021).

Tested on: fat pad-derived MSCs
Test: MSC migration in Boyden chamber plates
Assay type: cell-based
Conditions: MSCs isolated from the fat pad of the joint; preliminary
Experimental: To determine if there are inherent differences in the migratory activity of the different MSC populations, migration in response to serum is first evaluated using 96-well Boyden chamber plates. To simulate OA conditions, MSC migration is evaluated in response to IL-1β (10 ng/mL and 50 ng/mL), conditioned medium from the established OA cartilage explants, and conditioned medium from normal explants. Results from each group are compared with a positive control of media with 10% serum to determine if the experimental conditions increase or decrease migration of MSCs.
The response of MSCs to chondroinductive agents is evaluated, specifically platelet-derived growth factor (PDGF-BB) and kartogenin (KGN), which were selected based on their pleiotropic effects on promoting both migration and chondrogenesis of MSCs without adverse effects in the OA joint. PDGF-BB exerts chemotactic effects on bone marrow-derived MSCs, and facilitates new cartilage formation in the presence of IL-1β (Montaseri, A., et al. PloS one 6:e28663 (2011)). […] Kartogenin has been implicated in stimulating MSC recruitment in vivo, however, there are no reported migration studies with KGN, and therefore, the underlying mechanism for KGN-mediated recruitment is largely unknown. […]

With “IL-1β: predominant pro-inflammatory cytokine in OA” the MSC migration was “may indeed inhibit migration”.
